Here are results for three molecules from paper PMC9749896 (Bioorganic & medicinal chemistry letters, 2022).

In assay [1] the test system is Ba/F3 EGFR^L858R/T790M cells. The settings on record: cited from earlier work.
The next assay relates to H1975 (EGFR^L858R/T790M). The settings on record: daily oral dosing at 100 mg/kg; cited from earlier work.
Assay [2] has as its system EGFR^L858R/T790M/C797S models. The conditions noted are these: daily oral dosing at 50 mg/kg; cited from earlier work.
For the next assay, the system named is A431 (wt EGFR). The conditions noted are these: daily oral dosing at 50 mg/kg; cited from earlier work.
Assay [3] deals with Ba/F3 EGFR^L858R/T790M/C797S cells. The assay can be described thus: cells. The conditions noted are these: Mus musculus, BaF3, read-out: cell EC50, Ba/F3 EGFR L858R/T790M/C797S.
The subject of assay [4] is Ba/F3 EGFR^L858R/T790M cells. Put plainly: cells. The conditions noted are these: Mus musculus, BaF3, read-out: cell EC50, Ba/F3 EGFR L858R/T790M.

In the case of `O=C(Nc1nccs1)C(c1cc(F)ccc1O)N1Cc2ccc(-c3ccc(N4CCNCC4)cc3)cc2C1=O` (stereo not drawn) [Compound 2], the “single-agent activity in Ba/F3 EGFR L858R/T790M antiproliferative assay” value in assay [1] was “good single-agent activity”. Moreover, the H1975 model efficacy result with H1975 (EGFR^L858R/T790M) is listed as “efficacy was observed”.
Take `CN1CCC(c2ccc(-c3ccc4c(c3)C(=O)N(C(C(=O)Nc3nccs3)c3cc(F)ccc3O)C4)cc2)CC1` (stereo not drawn) [Compound 4]: in assay [2], the “efficacy in triple mutant (EGFR L858R/T790M/C797S) models” value is “tumor regression”. In addition, the “efficacy in A431 (wt EGFR) model” value with A431 (wt EGFR) is reported as “minimal effects”.
Take `CN1CCC(c2ccc(-c3ccc4ncn(C(C(=O)Nc5nccs5)c5ccccc5)c(=O)c4c3)cc2)CC1` (stereo not drawn) [Compound 23]: the EC50 in assay [3] worked out at 50 nM; in assay [4], 720 nM.
